Where “and” joins values, the source holds several entries; their conditions need not be identical. Equal values may be shown once.
What was measured:
androgen receptor [1] = molecular target: T1, androgen receptor (Rattus norvegicus, UniProt P15207); assay: L929 Androgen Receptor Functional Assay, Adenovirus Transduction; assay type: cell-based; parameters: expressed in transfected cells; host or cells: L929 cells transduced with adenovirus AdEasy+rAR; details: for % Activity: L929 agonist testing
T1 sequence (P15207 1-902): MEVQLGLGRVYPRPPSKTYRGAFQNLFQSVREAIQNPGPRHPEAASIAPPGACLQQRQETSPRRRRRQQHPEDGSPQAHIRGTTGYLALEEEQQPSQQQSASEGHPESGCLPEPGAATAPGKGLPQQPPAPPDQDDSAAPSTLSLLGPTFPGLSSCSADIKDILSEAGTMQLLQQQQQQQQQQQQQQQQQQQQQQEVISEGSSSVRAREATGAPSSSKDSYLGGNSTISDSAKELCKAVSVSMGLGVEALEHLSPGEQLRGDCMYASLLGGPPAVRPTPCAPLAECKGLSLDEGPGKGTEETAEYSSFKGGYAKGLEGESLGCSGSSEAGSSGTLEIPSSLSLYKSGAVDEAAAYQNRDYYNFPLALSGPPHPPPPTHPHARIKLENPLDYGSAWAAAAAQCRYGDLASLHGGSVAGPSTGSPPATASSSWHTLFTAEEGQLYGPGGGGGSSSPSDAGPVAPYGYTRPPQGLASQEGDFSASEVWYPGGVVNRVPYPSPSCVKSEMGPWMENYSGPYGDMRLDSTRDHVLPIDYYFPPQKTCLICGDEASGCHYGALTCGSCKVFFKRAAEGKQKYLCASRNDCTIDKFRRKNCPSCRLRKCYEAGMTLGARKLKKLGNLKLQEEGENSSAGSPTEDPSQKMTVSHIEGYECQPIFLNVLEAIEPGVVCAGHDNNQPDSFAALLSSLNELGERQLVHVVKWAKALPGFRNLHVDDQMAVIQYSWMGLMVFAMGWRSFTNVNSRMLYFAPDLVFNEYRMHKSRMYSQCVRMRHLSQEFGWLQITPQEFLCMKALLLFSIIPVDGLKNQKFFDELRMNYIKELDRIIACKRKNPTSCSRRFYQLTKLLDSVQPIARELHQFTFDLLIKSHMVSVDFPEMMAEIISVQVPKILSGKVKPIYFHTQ
Procedure: L929 cells were plated in 96-well plates at 20,000 cells per well, in DMEM/F12 (GIBCO) containing 10% (v/v) charcoal-treated fetal bovine serum (Hyclone) and lacking phenol red. The plates were then incubated overnight at 37° C. in 5% (v/v) humidified CO2.
Test compound dilutions were prepared in 100% (v/v) DMSO, if necessary. Each dilution was made to 1250× the final desired assay concentration.
First, 2 mL of DMEM/F12 lacking phenol red was pipetted into the wells of a 2-mL 96-well assay block. Next, 4 μL of the 1250× test compound dilutions were pipetted into each well of the assay block. The mixtures within the well were then carefully mixed by pipette.
In a 15 mL or 50 mL sterile centrifuge tube, a 2.5 nM (2.5×) dilution of R1881 (methyl-trienolone) in DMEM/F12 lacking phenol red was prepared.
In a second 15 mL or 50 mL centrifuge tube a solution containing an equal volume of DMEM to the first and an equal volume of 100% (v/v) DMSO to the volume of R1881 used in the first tube was prepared.
In a 15 mL or 50 mL sterile centrifuge tube, a dilution in DMEM/F12 of the adenovirus AdEasy+rAR at an moi of 1:500 per well was prepared.
The medium was removed from the 96-well plates by inversion and dried, inverted, very briefly. As soon as possible after medium removal, 40 μL of the diluted unlabeled test compound was added to each well, in duplicate. To each well designated for antagonist testing was added 40 μL of the 2.5 nM R1881 dilution to the wells for antagonist testing. To each well designated for agonist testing was added 40 μL of the DMSO dilution. Then 20 μL of the diluted adenovirus were added to all wells. The plates were incubated for 48 hours at 37° C. in 5% (v/v) humidified CO2.
To each well was added 100 μL of Steady-Glo luciferase assay substrate (Promega) and the plates were placed on a rotary shaker for 1 min. The plates were then incubated at room temperature in the dark for one hour. The contents of each well were then transferred to a white microtiter plate (Packard) and read on a Luminoskan Ascent (Thermo Lab Systems).
L929 AR percent activity was determined by testing dilutions of the test compound using a concentration of 3000 nM unless otherwise noted. L929 percent inhibition was determined by testing dilutions of the test compound using a concentration of 3000 nM. […] Luciferase activity per well were measured and EC50s and IC50s determined by linear regression.

androgen receptor [2] = molecular target: T1, androgen receptor; assay: Androgen Receptor Binding Using Rat Ventral Prostate Cytosol; parameters: from tissue; host or cells: ventral prostate cytosol of castrated male Sprague Dawley or Wistar rats; details: Rat Cytosol
Procedure: Rat Prostate Cytosol Preparation:
Male Sprague Dawley or Wistar rats (Charles River, 200-300 g) were used for each preparation. The day before preparing the cytosol, the rats were castrated using standard surgical procedures.
The rats were euthanized by carbon dioxide asphyxiation. The rat prostates were quickly removed and placed on ice in pre-chilled, pre-weighed 50 mL plastic tubes. No more than five prostates were placed into one tube. The tubes were then weighed and the prostate tissue wet weights calculated.
To the chilled prostate tissue was then added […] of chilled homogenization buffer. The homogenization buffer was freshly prepared by mixing 10 mM Tris.HCl, pH 7.4, 1 mM sodium molybdate, 1.5 mM EDTA, 1 mM dithiothreitol, 10% (v/v) glycerol and 1% protease inhibitor cocktail (Sigma P 8340).
The prostate tissue was homogenized in a cold room using a pre-chilled Polytron PT3000 homogenizer (Brinkmann). Homogenization was performed at a speed setting of 20, three times for 10 sec bursts. The tubes containing the prostate tissue was kept on ice while homogenizing. The homogenate was allowed to rest on ice for 20 sec between bursts.
The homogenate was then placed into pre-chilled 3 mL polycarbonate ultracentrifuge tubes and centrifuged in the TLA-100 rotor of a TL-100 ultracentrifuge for 12 min at 100,000 rpm at 4° C. The resulting supernatant was stored in 1 mL aliquots at −80° C. until needed.
Binding to the androgen receptor was determined according to the protocol described in Example 86 using the above prepared rat cytosol.
% Inhibition was determined by testing dilutions of the test compound (usually duplicates of 10 μM) in the binding assay. Counts per well were measured and percents of inhibition determined. […] Counts per well were measured and IC50s determined by linear regression.

| Structure (SMILES) | % Activity (androgen receptor [1]; concentration of 3000 nM) [%] | also measured |
| --- | --- | --- |
| CC[S+]([O-])CC(O)c1cc2cc([N+](=O)[O-])c(C(F)(F)F)cc2[nH]1 (mixture of isomers) [compound 180] | 2 |  |
| CSCCC(C)(O)c1cc2cc(Cl)c(C(F)(F)F)cc2[nH]1 (racemic) [compound 51] | 2 |  |
| CN(C)c1ccc(S(=O)(=O)CC(C)(O)c2cc3cc(Cl)c(C(F)(F)F)cc3[nH]2)cc1 (racemic) [compound 126] | −5 | % Inhibition (androgen receptor [2]; Concentration 3000 nM): −30% |
| CC(O)(CS(=O)(=O)Cc1ccccc1)c1cc2cc([N+](=O)[O-])c(C(F)(F)F)cc2[nH]1 (racemic) [compound 162] | 2 | % Inhibition (androgen receptor [2]; Concentration 3000 nM): 0.69% |
| CCCSCC(C)(O)c1cc2cc(Cl)c(C(F)(F)F)cc2[nH]1 (racemic) [compound 196] | 13 |  |
| CC(O)(CSCc1ccco1)c1cc2cc([N+](=O)[O-])c(C(F)(F)F)cc2[nH]1 (racemic) [compound 198] | 7 |  |
| CC(O)(CS(=O)(=O)CC(F)(F)F)c1cc2cc([N+](=O)[O-])c(C(F)(F)F)cc2[nH]1 (racemic) [compound 208] | 1 |  |
| CC(O)(CSCC(F)(F)F)c1cc2cc(C#N)c(C(F)(F)F)cc2[nH]1 (racemic) [compound 211] | −1 |  |
| CCS(=O)(=O)CC(C)(O)c1cc2cc(C#N)c(C(F)(F)F)cc2n1C (racemic) [compound 240] | 0 |  |
| CC(O)(Sc1ccc(Cl)c(Cl)c1)c1cc2cc([N+](=O)[O-])c(C(F)(F)F)cc2[nH]1 (racemic) [compound 254] |  | % Inhibition (androgen receptor [2]; Concentration 1000 nM): 41% |
| CC(O)(c1cc2cc([N+](=O)[O-])c(C(F)(F)F)cc2[nH]1)S(=O)(=O)c1ccc(Cl)c(Cl)c1 (racemic) [compound 255] |  | % Inhibition (androgen receptor [2]; Concentration 1000 nM): 26% |
| CC(O)(Sc1ccccc1)c1cc2cc([N+](=O)[O-])c(C(F)(F)F)cc2[nH]1 (racemic) [compound 258] |  | % Inhibition (androgen receptor [2]; Concentration 1000 nM): 35.4% |
| CC(O)(Sc1ccc(Cl)cc1)c1cc2cc(C#N)c(C(F)(F)F)cc2[nH]1 (racemic) [compound 261] |  | % Inhibition (androgen receptor [2]; Concentration 1000 nM): 14.05% |
| CC(O)(c1cc2cc(C#N)c(C(F)(F)F)cc2[nH]1)S(=O)(=O)c1ccc(Cl)cc1 (racemic) [compound 262] |  | % Inhibition (androgen receptor [2]; Concentration 1000 nM): −8.4% |
| CC(O)(Sc1ccc(N)cc1)c1cc2cc(Cl)c(C(F)(F)F)cc2[nH]1 (racemic) [compound 265] | −1 | % Inhibition (androgen receptor [2]; Concentration 3000 nM): 93.5% |
| CC(O)(Sc1ccc(N)cc1)c1cc2cc([N+](=O)[O-])c(C(F)(F)F)cc2[nH]1 (racemic) [compound 266] | −4 | % Inhibition (androgen receptor [2]; Concentration 3000 nM): 12.4% |
| CSC(C)(O)c1cc2cc([N+](=O)[O-])c(C(F)(F)F)cc2[nH]1 (racemic) [compound 267] |  | % Activity (androgen receptor [1]; concentration of 3000 nM, 3 µM): −5% and 0% |
| CC(C)SC(C)(CO)c1cc2cc([N+](=O)[O-])c(C(F)(F)F)cc2[nH]1 (racemic) [compound 268] | 9 | % Inhibition (androgen receptor [2]; Concentration 3000 nM): −3.3% |
| CCSCC(C)(O)c1cc2cc(C#N)c(C(F)(F)F)cc2[nH]1 (single isomer, unassigned) [Compound #217, 2-(2-Ethylsulfanyl-1-hydroxy-1-methyl-ethyl)-6-trifluoromethyl-1H-indole-5-carbonitrile] |  | % Activity (androgen receptor [1]; @ 8000 nM): 0 @ 8000 nM % |
| CS(=O)(=O)n1c(C2(O)CCN(C(=O)c3ccc(Cl)cc3)CC2)cc2cc(Cl)c(C(F)(F)F)cc21 [compound 24] |  | % Inhibition (androgen receptor [2]; Concentration 1000 nM): 2% |
| CSCCC(C)(O)c1cc2cc([N+](=O)[O-])c(C(F)(F)F)cc2[nH]1 (centres unmarked) [compound 47] | 2 |  |
| COc1ccc(S(=O)(=O)CC(C)(O)c2cc3cc(Cl)c(C(F)(F)F)cc3n2S(C)(=O)=O)cc1 (centres unmarked) [compound 128] | −4 |  |
| CC(O)(CSc1ccc(C(=O)O)cc1)c1cc2cc(Cl)c(C(F)(F)F)cc2n1S(C)(=O)=O (centres unmarked) [compound 132] | −5 |  |
| CC(O)(CSc1ccc(C(=O)O)cc1)c1cc2cc(Cl)c(C(F)(F)F)cc2[nH]1 (centres unmarked) [compound 133] | −4 |  |
| CC(O)(CS(C)(=O)=O)c1cc2cc(Cl)c(C(F)(F)F)cc2n1S(C)(=O)=O (centres unmarked) [compound 137] | 0 |  |
| CC(C)CSCC(C)(O)c1cc2cc([N+](=O)[O-])c(C(F)(F)F)cc2[nH]1 (centres unmarked) [compound 170] | 2 |  |
| CC[S+]([O-])CC(C)(O)c1[nH]c2cc(C(F)(F)F)c(C#N)cc2c1C (centres unmarked) [compound 252] |  | IC50 (androgen receptor [1]; L929 antagonist testing with R1881): 3.1 µM |

Source: US9434688B2, “Indole derivatives as selective androgen receptor modulators (SARMS)” (Janssen Pharmaceutica, NV, priority 2004, dated 2016)
